Results as given in ChEMBL document CHEMBL5584237, “Design, synthesis, biological evaluation, and in silico studies of novel pyridopyridine derivatives as anticancer candidates targeting FMS kinase” (Eur J Med Chem, 2024).
The source made the active and inactive calls. No cut-off for these calls is given here.

How the values were obtained:
K562 = assay: Antiproliferative activity against human K562 cells assessed as cell growth inhibition; format: functional
[1] = Selectivity index, ratio of IC50 for human HS27 cells to IC50 for human HCT-15 cells
HCT-116 = assay: Antiproliferative activity against human HCT-116 cells assessed as cell growth inhibition; format: functional
[2] = Selectivity index, ratio of IC50 for human HS27 cells to IC50 for human MDA-MB-468 cells
in vitro = conditions: human, WI-38 cells and A549 cells
Description: Selectivity index, ratio of IC50 for human WI-38 cells to IC50 for human A549 cells

Hep 3B2 = assay: Cell cycle arrest in human Hep3B cells assessed as upregulation of cyclin B1 expression at 0.5 x IC50 to IC50 measured after 48 hrs by Western blot analysis; format: functional, cell-based
786-0 = assay: Antiproliferative activity against human 786-0 cells assessed as cell growth inhibition; format: functional
[3] = Selectivity index, ratio of IC50 for human WI-38 cells to IC50 for human LOX IMVI cells

With `CCN1CCN(c2ccc(NC(=O)Nc3ccc(-c4cc(C(=O)NC(C)C)c5ncccc5n4)cc3)cc2C(F)(F)F)CC1` the GI50 (K562) was 1000 nM, the TGI (K562) was 34500 nM and the “Ratio IC50” value [1] was 9.77. The GI50 (HCT-116) was 640 nM, the TGI (HCT-116) was 1300 nM and the “Ratio IC50” value [2] was 5.22. The selectivity ratio (in vitro) was 6.4, the Activity (Hep 3B2) was “inactive” and the GI50 (786-0) was 500 nM. The TGI (786-0) was 1030 nM and the “Ratio IC50” value [3] was 8.62.
